Results reported in article PMC12644596 (Scientific Reports, 2025).

Test: MTT test, normal cells, 24 h
Type: cell-based
Details: human, human dermal adult fibroblasts (HDFa)

O=[N+]([O-])c1ccc(NCCCCN=C=S)c2nonc12 [NBDC4NCS, N-(4-isothiocyanatobutyl)-7-nitro-2,1,3-benzoxadiazol-4-amine]
viability at 24 h: ~70%
